These results are taken from patent US20250332162A1 (priority 2022, published 2025).

Data set [1] has as its system Flu virus strain A/Puerto Rico/8/1934 (PR8). The data set is described as follows: microbe, parasite or virus in culture. The following applies: unidentified influenza virus, PR8, MDCK, MDCK cells. It is filed as cell-based.
Data set [2] can be described thus: Solubility on dilution of 10 mM DMSO stocks. It is filed as physicochemical. The settings on record: 10 mM stocks in DMSO. How it is done:
Antiviral compounds: Favipiravir, Mycophenolate, and Viramidine were prepared as 10 mM stocks in dimethyl sulfoxide (DMSO) and were soluble when diluted in various reaction mixtures and cell culture media. […] Also, combination of Favipiravir with each of the other drugs were tested.

Setting [3] is: 48 h, read-out: estimated IC50 when used alone, Example A, PR8 Flu virus 0.01 MOI, 48 hours.
[4] abbreviates: read-out: IC50, inhibition of influenza virus cytopathic activity, drug alone, FIG. 1 experiment, influenza A/PR8 m.o.i. 0.01, pre-treated 1 h, two days.
The mark [5] stands for this setting: read-out: IC50, inhibition of influenza virus cytopathic activity, drug alone, FIG. 7 experiment, influenza m.o.i. 0.01, pre-treated 1 h, two days.

pIC50: −log10 of the molar value. Read-outs that look alike come from different tables or passages of the source.

Broadly, the pIC50 is −log10 of the IC50, conventionally taken in molar units. Turning to `NC(=O)c1nc(F)c[nH]c1=O` [Favipiravir, favipiravir], the results for the negative-log IC50 (pIC50) in data set [1] (setting [3]), in data set [1] (setting [4]) and in data set [1] (setting [5]) were 4.60, 4.58 and 4.60, respectively. Also, in data set [2], the “solubility when diluted in reaction mixtures and cell culture media” value (from here on “solubility when diluted”) is recorded as “soluble”.
Turning to `COc1c(C)c2c(c(O)c1C/C=C(\C)CCC(=O)O)C(=O)OC2` [Mycophenolate], the pIC50 in data set [1] (setting [3]) and in data set [1] (setting [4]) was 5.85 throughout. Further, in data set [2], the “solubility when diluted” value is given as “soluble”.
For `N=C(N)c1ncn([C@@H]2O[C@H](CO)[C@@H](O)[C@H]2O)n1` [Viramidine, viramidine], the pIC50 in data set [1] (setting [3]) and in data set [1] (setting [5]) was 4.02 throughout. Besides, in data set [2], the “solubility when diluted” value was “soluble”.
